# According to ChEMBL document CHEMBL5465560, “Selectivity Literature for EUbOPEN Chemogenomic Library” (2024):
# Experiments:
# [1] = biological target: Polycomb protein SUZ12 (Homo sapiens) (UniProt Q15022); assay: Selectivity interaction (Methyltransferase screen (radiometric assays, panel of 8 PRMTs, 21 protein lysine methyltransferases, 3 DNA methyltransferases, and one RNA methyltransferase)) EUB0000271b SUZ12
# [2] = biological target: Beta-2 adrenergic receptor (Homo sapiens, UniProt P07550); assay: Selectivity interaction (Eurofins CEREP Diversity Profile (receptors and ion channels)) EUB0000279b ADRB2; conditions: at 10 µM
# [3] = biological target: Sodium-dependent serotonin transporter (Homo sapiens, UniProt P31645); assay: Selectivity interaction (Eurofins CEREP Diversity Profile (receptors and ion channels)) EUB0000279b SLC6A4; conditions: at 10 µM
# Sodium-dependent serotonin transporter, sequence (P31645 whole entry, looked up): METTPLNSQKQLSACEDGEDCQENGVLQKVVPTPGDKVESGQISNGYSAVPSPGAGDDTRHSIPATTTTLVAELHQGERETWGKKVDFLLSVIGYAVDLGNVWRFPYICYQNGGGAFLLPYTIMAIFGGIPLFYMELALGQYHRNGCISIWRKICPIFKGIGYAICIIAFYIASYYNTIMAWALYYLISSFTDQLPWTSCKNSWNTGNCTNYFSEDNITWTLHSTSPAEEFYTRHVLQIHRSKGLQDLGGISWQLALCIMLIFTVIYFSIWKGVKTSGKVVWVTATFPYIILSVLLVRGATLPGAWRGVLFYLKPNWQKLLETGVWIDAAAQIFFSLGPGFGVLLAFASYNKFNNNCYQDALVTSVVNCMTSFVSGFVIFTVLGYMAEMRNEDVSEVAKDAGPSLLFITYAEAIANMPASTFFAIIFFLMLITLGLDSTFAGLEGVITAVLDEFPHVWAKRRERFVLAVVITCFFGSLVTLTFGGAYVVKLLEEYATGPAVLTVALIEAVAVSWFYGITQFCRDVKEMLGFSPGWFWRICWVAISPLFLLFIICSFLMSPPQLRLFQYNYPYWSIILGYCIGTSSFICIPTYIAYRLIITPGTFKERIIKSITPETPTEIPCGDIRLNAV
# [4] = biological target: Calcium/calmodulin-dependent protein kinase type II subunit beta (Homo sapiens) (UniProt Q13554); assay: Selectivity interaction (Ambit KINOMEscan and KiNATiv profiling in Jurkat cells) EUB0000090b CAMK2B; type: cell-based; conditions: at 1 µM
# Calcium/calmodulin-dependent protein kinase type II subunit beta (Homo sapiens), sequence (Q13554 whole entry): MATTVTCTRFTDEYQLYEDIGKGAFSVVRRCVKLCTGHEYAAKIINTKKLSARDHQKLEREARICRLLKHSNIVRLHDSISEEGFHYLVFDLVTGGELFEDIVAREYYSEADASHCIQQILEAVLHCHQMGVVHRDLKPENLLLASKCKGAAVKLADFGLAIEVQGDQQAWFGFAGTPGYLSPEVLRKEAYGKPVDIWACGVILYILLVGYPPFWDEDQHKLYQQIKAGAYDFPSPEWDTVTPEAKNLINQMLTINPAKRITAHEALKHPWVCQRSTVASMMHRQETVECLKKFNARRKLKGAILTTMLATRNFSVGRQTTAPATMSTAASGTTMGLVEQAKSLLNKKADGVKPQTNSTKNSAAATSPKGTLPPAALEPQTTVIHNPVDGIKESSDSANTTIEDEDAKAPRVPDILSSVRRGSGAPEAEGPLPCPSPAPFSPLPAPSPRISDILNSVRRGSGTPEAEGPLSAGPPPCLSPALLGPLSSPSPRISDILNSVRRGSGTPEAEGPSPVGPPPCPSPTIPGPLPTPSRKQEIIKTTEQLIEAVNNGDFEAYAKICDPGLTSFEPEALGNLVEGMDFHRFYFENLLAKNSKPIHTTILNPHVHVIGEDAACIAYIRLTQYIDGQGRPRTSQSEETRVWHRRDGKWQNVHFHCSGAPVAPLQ
# [5] = biological target: Serine/threonine-protein kinase 35 (Homo sapiens) (UniProt Q8TDR2); assay: Selectivity interaction (Ambit KINOMEscan and KiNATiv profiling in Jurkat cells) EUB0000090b STK35; type: cell-based; conditions: at 1 µM
# [6] = biological target: Alpha-2B adrenergic receptor (Homo sapiens) (UniProt P18089); assay: Selectivity interaction (GPCR panel (PDSP screen)) EUB0001079a ADRA2B; conditions: at 10 µM
# [7] = biological target: Glycogen synthase kinase-3 beta (Homo sapiens, UniProt P49841); assay: Selectivity interaction (KinomeScan (DiscoverX)) EUB0000607a GSK3B; conditions: at 10 µM
# Glycogen synthase kinase-3 beta, sequence (P49841 whole entry, looked up): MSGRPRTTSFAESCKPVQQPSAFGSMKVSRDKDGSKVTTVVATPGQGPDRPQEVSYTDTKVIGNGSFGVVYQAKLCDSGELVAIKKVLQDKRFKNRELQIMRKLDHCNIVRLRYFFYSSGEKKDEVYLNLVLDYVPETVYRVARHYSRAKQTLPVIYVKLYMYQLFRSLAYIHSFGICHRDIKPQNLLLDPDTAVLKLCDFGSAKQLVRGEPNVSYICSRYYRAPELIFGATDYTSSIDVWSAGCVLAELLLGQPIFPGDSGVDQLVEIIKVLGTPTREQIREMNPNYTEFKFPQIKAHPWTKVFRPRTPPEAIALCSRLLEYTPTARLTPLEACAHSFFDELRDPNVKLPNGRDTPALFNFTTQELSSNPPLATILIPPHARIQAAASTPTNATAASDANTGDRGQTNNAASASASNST
# [8] = biological target: T1, Serine/threonine-protein kinase D1 (Homo sapiens) (UniProt Q15139); assay: Selectivity interaction (KinomeScan (DiscoverX)) EUB0000045b PRKD1
# T1 sequence (whole entry): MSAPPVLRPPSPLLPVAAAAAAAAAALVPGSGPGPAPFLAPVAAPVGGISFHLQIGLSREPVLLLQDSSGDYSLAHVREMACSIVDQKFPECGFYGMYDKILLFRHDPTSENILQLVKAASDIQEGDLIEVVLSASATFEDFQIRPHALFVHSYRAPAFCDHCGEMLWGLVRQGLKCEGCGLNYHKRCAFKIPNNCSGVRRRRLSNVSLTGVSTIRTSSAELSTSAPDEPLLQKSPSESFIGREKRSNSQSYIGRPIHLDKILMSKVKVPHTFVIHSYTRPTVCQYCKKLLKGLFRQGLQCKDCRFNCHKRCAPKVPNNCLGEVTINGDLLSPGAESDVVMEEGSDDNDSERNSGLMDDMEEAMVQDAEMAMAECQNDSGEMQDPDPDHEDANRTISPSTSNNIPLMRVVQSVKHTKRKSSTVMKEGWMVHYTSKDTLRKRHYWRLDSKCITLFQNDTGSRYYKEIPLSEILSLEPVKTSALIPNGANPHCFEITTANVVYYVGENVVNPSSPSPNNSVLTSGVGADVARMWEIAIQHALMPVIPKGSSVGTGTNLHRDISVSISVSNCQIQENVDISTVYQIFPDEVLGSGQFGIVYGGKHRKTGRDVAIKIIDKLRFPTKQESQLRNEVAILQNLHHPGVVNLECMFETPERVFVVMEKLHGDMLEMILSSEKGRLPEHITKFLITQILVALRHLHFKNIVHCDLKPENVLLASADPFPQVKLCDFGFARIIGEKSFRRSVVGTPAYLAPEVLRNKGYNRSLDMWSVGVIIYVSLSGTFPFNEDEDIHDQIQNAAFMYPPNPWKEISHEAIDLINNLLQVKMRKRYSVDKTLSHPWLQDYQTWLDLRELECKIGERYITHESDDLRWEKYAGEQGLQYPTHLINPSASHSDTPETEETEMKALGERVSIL
# [9] = biological target: T2, Scaffold protein ILK (Homo sapiens) (UniProt Q13418); assay: Selectivity interaction (Kinase panel (KiNativ target engagement assay in Jurkat cells)) EUB0001635a ILK; type: cell-based; conditions: Selectivity number of off-targets 0.0, Selectivity number of targets 233.0, Source Knowledge https://www.sciencedirect.com/science/article/pii/S2451945619300674?via%3Dihub, at 1 µM
# T2 sequence (whole entry): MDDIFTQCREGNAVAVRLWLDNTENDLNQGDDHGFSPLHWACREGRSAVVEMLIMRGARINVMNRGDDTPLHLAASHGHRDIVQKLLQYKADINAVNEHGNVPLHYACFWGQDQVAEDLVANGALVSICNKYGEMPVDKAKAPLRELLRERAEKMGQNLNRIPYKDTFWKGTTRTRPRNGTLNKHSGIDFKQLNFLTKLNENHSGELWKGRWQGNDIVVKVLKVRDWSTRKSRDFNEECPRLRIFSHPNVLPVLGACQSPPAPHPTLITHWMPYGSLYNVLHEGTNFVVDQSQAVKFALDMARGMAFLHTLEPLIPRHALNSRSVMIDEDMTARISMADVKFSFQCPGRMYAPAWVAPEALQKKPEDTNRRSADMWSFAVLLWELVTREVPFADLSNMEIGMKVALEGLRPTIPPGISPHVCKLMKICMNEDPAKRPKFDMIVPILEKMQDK
# [10] = biological target: Serine/threonine-protein kinase Chk2 (Homo sapiens) (UniProt O96017); assay: Selectivity interaction (ActivX KiNativ screen (kinase selectivity in THP-1 cell lysates)) EUB0000639a CHEK2; type: subcellular; conditions: lysate, at 0.01 µM
# [11] = biological target: Mitogen-activated protein kinase 8 (Homo sapiens, UniProt P45983); assay: Selectivity interaction (Kinase panel (Invitrogen)) EUB0000639a MAPK8; conditions: at 200 nM
# Mitogen-activated protein kinase 8, sequence (P45983 whole entry): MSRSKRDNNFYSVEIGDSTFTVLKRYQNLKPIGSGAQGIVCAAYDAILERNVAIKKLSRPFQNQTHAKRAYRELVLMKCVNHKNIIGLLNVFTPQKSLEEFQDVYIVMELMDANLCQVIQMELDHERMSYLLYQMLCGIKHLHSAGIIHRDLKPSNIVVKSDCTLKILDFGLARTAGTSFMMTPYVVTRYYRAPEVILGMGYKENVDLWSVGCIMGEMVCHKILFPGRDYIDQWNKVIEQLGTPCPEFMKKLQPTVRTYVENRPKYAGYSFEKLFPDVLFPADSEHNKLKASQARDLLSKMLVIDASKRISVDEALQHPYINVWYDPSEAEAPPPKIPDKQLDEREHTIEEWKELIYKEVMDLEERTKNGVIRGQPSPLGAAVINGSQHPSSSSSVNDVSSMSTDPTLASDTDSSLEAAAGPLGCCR
# [12] = biological target: Bromodomain-containing protein 9 (Homo sapiens) (UniProt Q9H8M2); assay: Selectivity interaction (Bromodomain panel (DSF asssay)) EUB0000270b BRD9
# [13] = biological target: Mast/stem cell growth factor receptor Kit (Homo sapiens, UniProt P10721)
# [14] = biological target: TRAF2 and NCK-interacting protein kinase (Homo sapiens) (UniProt Q9UKE5); assay: Selectivity interaction (KinomeScan (DiscoverX)) EUB0001049a TNIK; conditions: at 1 µM
# [15] = test system: Tyrosine-protein kinase ABL1 (Homo sapiens), P00519 [F317L]; assay: Selectivity interaction (KinomeScan (DiscoverX)) EUB0000666a ABL1; conditions: at 10 µM
# [16] = biological target: Tyrosine-protein kinase Fgr (Homo sapiens) (UniProt P09769); assay: Selectivity interaction (KinomeScan (DiscoverX)) EUB0000092b FGR; conditions: at 10 µM
# Tyrosine-protein kinase Fgr (Homo sapiens), sequence (P09769 2-529 limits assumed): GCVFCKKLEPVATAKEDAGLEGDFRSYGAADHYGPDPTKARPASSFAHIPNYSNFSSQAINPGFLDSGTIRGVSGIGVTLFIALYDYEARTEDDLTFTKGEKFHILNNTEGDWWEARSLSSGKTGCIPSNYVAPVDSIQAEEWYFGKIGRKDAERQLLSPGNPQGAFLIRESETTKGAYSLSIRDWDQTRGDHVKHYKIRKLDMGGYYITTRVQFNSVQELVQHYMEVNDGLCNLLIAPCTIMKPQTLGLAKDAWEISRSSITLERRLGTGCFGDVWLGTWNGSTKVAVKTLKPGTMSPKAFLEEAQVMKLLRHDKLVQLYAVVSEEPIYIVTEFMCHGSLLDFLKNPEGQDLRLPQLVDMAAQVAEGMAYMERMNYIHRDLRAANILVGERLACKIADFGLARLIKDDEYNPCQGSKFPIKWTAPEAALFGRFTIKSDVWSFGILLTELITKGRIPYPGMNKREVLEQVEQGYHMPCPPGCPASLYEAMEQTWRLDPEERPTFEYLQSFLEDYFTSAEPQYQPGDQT
# [17] = biological target: Proto-oncogene tyrosine-protein kinase ROS (Homo sapiens) (UniProt P08922); assay: Selectivity interaction (KinomeScan (DiscoverX)) EUB0000092b ROS1; conditions: at 10 µM
# [18] = biological target: Death-associated protein kinase 1 (Homo sapiens, UniProt P53355); assay: Selectivity interaction (Kinase screening (Nanosyn)) EUB0000604a DAPK1
# Death-associated protein kinase 1, sequence (P53355 whole entry, looked up): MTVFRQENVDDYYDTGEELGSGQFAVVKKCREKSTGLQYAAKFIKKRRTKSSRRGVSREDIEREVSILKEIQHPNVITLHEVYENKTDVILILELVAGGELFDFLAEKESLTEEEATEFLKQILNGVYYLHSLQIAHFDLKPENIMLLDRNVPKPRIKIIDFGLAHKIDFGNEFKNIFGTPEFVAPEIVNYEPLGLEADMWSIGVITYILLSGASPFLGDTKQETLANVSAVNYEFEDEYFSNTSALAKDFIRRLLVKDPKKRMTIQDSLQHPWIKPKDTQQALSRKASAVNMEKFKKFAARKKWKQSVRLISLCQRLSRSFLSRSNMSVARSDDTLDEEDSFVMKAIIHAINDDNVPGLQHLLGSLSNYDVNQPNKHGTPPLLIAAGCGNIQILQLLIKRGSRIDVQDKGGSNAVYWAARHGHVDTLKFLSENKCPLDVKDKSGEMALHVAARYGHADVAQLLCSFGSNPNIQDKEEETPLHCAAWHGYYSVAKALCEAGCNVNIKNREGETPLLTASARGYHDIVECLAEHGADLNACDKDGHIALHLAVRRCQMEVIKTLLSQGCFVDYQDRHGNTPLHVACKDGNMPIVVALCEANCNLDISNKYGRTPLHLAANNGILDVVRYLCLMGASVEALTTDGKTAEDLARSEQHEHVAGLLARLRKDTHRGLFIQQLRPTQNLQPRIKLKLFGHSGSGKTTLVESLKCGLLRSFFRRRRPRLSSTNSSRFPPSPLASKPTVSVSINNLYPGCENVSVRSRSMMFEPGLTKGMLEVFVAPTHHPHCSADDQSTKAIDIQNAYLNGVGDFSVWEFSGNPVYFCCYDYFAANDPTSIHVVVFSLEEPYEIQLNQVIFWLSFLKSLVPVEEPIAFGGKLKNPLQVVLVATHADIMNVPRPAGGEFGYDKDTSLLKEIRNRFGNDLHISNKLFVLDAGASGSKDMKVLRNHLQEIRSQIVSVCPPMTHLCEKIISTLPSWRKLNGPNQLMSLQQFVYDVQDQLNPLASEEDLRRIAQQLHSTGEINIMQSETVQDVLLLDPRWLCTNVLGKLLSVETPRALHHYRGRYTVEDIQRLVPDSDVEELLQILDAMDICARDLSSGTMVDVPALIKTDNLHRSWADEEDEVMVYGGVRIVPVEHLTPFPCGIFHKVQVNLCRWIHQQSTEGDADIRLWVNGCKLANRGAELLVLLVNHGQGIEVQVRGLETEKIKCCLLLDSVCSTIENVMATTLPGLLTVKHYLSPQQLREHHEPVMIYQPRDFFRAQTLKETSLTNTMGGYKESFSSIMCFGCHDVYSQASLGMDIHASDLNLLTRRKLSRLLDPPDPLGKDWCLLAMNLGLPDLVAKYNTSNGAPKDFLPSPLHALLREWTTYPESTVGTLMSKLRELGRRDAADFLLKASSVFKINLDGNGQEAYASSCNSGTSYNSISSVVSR
# [19] = biological target: STE20/SPS1-related proline-alanine-rich protein kinase (Homo sapiens) (UniProt Q9UEW8); assay: Selectivity interaction (KinomeScan (DiscoverX)) EUB0000695a STK39; conditions: at 100 nM
# Polycomb protein SUZ12 (Homo sapiens), sequence (Q15022 whole entry): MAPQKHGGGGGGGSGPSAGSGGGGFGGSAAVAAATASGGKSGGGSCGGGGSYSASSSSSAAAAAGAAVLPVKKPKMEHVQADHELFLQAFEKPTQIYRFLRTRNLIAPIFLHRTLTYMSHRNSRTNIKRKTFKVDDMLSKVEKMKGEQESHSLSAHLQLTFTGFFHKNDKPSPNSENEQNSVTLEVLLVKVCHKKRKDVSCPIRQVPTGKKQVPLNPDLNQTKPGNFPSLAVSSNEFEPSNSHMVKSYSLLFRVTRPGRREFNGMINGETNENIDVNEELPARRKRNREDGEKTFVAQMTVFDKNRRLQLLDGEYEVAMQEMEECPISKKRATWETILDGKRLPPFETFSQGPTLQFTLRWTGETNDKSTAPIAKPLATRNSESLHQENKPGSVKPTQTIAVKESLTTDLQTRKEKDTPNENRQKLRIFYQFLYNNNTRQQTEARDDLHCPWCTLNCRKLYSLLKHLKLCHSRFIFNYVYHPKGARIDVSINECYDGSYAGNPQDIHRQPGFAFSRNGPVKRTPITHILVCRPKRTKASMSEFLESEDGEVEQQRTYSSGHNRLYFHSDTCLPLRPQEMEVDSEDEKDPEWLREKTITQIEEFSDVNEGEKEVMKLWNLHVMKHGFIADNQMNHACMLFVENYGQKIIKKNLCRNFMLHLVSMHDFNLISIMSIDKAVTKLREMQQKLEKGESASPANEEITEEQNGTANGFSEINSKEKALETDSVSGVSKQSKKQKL
compound,measurement,setting,value
Cc1cc(C)cc([C@@H]2c3cc(C)ccc3NC(=O)CN2C(=O)c2ccc(Br)s2)c1,% of activity,[1]; at 1 µM,101%
same,% of activity,[1]; at 10 µM,101%
CC(=O)c1cc(-c2ccccc2OCC2CC2)c2ncccn12,% of control,[2],99%
same,% of control,[3],108%
CN(C)C/C=C/C(=O)Nc1ccc(C(=O)N2CCCC(Nc3ncc(Cl)c(-c4c[nH]c5ccccc45)n3)C2)cc1 (stereo unspecified),% of control,[4],94%
same,% of control,[5],95%
Nc1cnc(N2CCc3cc(S(=O)(=O)Nc4c(F)cc(Cl)cc4F)cc(N4CCCC4=O)c32)nc1 [TP-020n],% of inhibition,[6],0.99%
CNC(=O)Nc1ccc(-c2nc(N3CC4CCC(C3)O4)c3cnn(C4CCC5(CC4)OCCO5)c3n2)cc1,% of control,[7],69%
C=CC(=O)Nc1cc(-n2c(=O)ccc3cnc4ccc(-c5ccc(NS(C)(=O)=O)cc5)cc4c32)ccc1C,% of control,[8]; at 1 µM,100%
same,% of control,[8]; at 10 µM,84%
C=CC(=O)Nc1ccc(C(=O)Nc2[nH]nc3c2CN(C(=O)N[C@H](CN(C)C)c2ccccc2)C3(C)C)cc1,% of engagement,[9],-20.3%
CC[C@@H]1[C@H](F)C(=O)N[C@@H]1COc1nccc2cc(C(N)=O)c(OC)cc12 [ZIMLOVISERTIB],% of inhibition,[10],-4.8%
same,% of inhibition,[11],6.17%
Cc1cc(CN)cc(C)c1-c1ncn(C)c1-c1cncn1C,dTM,[12],-1.14 K
CCc1cccc(CC)c1NC(=O)c1nn(C)c2c1CCc1cnc(Nc3ccc(C(=O)NC4CCN(C)CC4)cc3OC(F)(F)F)nc1-2,IC50,[13],> 10 µM
COc1cc(Nc2nc(C)cc(-c3cnn4nc(OC)ccc34)n2)cc(C(F)(F)F)c1,% of control,[14],74%
O=C(NOC[C@H](O)CO)c1ccc(F)c(F)c1Nc1ccc(I)cc1F,% of control,[15],86%
CCC(=O)N1CCN(c2ccc(-n3c(=O)ccc4cnc5ccc(-c6cnc7ccccc7c6)cc5c43)cc2C(F)(F)F)CC1,% of control,[16],78%
same,% of control,[17],71%
Cc1cnc(Nc2ccc(F)cc2Cl)nc1-c1c[nH]c(C(=O)N[C@H](CO)c2cccc(Cl)c2)c1,% of inhibition,[18],2%
Cc1cc(F)c(C(=O)Nc2cccc(-c3nncn3C(C)C)n2)cc1-n1cnc(C2CC2)c1,% of control,[19],79%
